A word on the IC50: it is the concentration needed to halve the response being measured.

The structures appear in SMILES notation. Values joined by “and” are separate entries in the source; they are usually repeats but may differ in a detail not shown here. Equal values may be shown once. Some results are limits rather than exact numbers.

One data set has as its target T1, recombinant human CYP1A1 (Homo sapiens, UniProt P04798).
T1 sequence (P04798 1-512): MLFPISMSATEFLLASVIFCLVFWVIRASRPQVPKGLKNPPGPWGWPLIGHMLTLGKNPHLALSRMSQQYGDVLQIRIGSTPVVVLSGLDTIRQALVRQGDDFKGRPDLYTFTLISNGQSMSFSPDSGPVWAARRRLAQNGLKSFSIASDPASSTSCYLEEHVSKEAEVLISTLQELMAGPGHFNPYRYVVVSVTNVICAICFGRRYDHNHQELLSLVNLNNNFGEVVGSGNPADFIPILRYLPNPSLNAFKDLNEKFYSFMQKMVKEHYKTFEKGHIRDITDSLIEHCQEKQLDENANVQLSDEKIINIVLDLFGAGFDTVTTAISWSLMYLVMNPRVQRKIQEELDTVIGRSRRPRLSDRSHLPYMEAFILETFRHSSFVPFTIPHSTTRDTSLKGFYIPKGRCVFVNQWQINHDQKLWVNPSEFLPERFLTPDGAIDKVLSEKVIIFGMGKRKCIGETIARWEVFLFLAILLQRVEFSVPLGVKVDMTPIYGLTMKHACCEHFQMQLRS
The experiment in a line: EROD assay, CYP1A1 inhibition. Format: biochemical.

In the next data set the target is T2, CYP1B1 over CYP1A1 (Homo sapiens, UniProt Q16678).
T2 sequence (Q16678 1-543): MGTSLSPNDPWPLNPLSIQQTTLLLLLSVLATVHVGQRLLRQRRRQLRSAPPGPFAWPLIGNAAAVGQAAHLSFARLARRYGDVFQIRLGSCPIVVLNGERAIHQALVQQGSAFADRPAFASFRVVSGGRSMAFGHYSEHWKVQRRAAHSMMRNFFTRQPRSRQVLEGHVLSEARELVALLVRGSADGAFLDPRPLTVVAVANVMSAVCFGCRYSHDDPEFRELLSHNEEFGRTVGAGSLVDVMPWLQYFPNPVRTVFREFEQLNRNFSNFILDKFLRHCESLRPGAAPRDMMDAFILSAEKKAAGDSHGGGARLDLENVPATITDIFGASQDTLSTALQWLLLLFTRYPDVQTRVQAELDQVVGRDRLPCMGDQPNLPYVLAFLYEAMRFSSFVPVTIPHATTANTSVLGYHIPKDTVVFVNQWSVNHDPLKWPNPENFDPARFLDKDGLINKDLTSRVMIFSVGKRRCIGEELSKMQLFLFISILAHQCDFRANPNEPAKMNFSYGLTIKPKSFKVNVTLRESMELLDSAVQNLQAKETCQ
Description: EROD assay, CYP1B1 inhibition. To be noted: human.

The target of a further data set is T3, recombinant human CYP1B1 (Homo sapiens, UniProt Q16678).
T3 sequence (Q16678 1-543): T2 sequence (Q16678 1-543)
The experiment in a line: EROD assay, CYP1B1 inhibition. To be noted: IC50 CYP1B1 ± SD, recombinant human enzyme, EROD assay, triplicate.

Data set [1] deals with myeloid leukemia cell lines. To be noted: ref [64],[65]; cited from earlier work.
The subject of the next data set is MDA-MB-231. To be noted: MDA-MB-231, apoptosis mechanism; ref [66]; cited from earlier work.
Data set [2] has as its system orthotopic 4T1 breast cancer models. To be noted: by inhibiting tumor-cell platelet aggregation, ref [63]; cited from earlier work.
[3] abbreviates: pH 7.4, selectivity CYP1A1/CYP1B1, ratio of IC50 values.

Take `O=c1cc(-c2ccccc2)oc2c1ccc1ccccc12` [ANF, α-naphthoflavone]: the IC50 at recombinant human CYP1A1 was 20 ± 4 nM.
For `CN(C)CC/C=C1/c2ccccc2Sc2ccc(Cl)cc21` [chlorprothixene], the selectivity ratio was 6.8 at CYP1B1 over CYP1A1 (setting [3]) and 7 on CYP1B1 over CYP1A1 (pH 7.4, selectivity toward CYP1B1 over CYP1A1, text). The 50% inhibitory concentration (IC50) at recombinant human CYP1B1 was 72 nM and 70 nM; at recombinant human CYP1A1 it was 490 ± 40 nM. For the same molecule, the cell death entry in data set [1] was “induce cell death by apoptosis”.
With `COc1ccc(Cl)cc1C(=O)NCCc1ccc(S(=O)(=O)NC(=O)NC2CCCCC2)cc1` [glibenclamide], the half-inhibitory concentration (IC50) at recombinant human CYP1B1 and at recombinant human CYP1A1 was above 10000 nM in each case.
For the molecule `CC1CCc2c(N3CCC(O)CC3)c(F)cc3c(=O)c(C(=O)O)cn1c23` (stereo not shown) [nadifloxacin], the selectivity ratio at CYP1B1 over CYP1A1 (setting [3]) stood at 1.61. Also, the IC50 on recombinant human CYP1B1 came out at 1460 nM; at recombinant human CYP1A1, 2360 ± 200 nM. Further, in the data set with MDA-MB-231, the anticancer activity result is listed as “promising anticancer activity”.
As to `CCCSc1nc(N[C@@H]2C[C@H]2c2ccc(F)c(F)c2)c2nnn([C@@H]3C[C@H](OCCO)[C@@H](O)[C@H]3O)c2n1` [ticagrelor], the selectivity ratio at CYP1B1 over CYP1A1 (setting [3]) came to 1.22. Further, the concentration for half-maximal inhibition (IC50) on recombinant human CYP1B1 was 2810 ± 900 nM; on recombinant human CYP1A1, 3450 ± 390 nM. Besides, the breast cancer prevention result in data set [2] is “breast cancer prevention activity”.

The values are drawn from article PMC9476183 (ACS Omega, 2022).
